Consider 30 compounds from PubChem BioAssay (NCI).

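Compound exposure: 48 hours, 5 concentrations, 96-well plates. GI50: concentration for 50% inhibition of growth. Definition used: TGI = concentration required for complete inhibition of growth.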

Test systems include A549 NSCLC; SNB-75 CNS; UO-31 renal; MCF7 breast.
Assay in all cases: DTP human tumour cell line panel, 48 h

The term TGI denotes the concentration at which net growth stops. Lower therefore signals more potent growth arrest. On to `CCCCNC(=S)Nc1nc(C(=O)NNC(=S)Nc2ccccc2)cs1`, for which the TGI is greater than 100 µM with A549 NSCLC, 91.1 µM in the experiment on SNB-75 CNS, greater than 100 µM with UO-31 renal and greater than 100 µM with MCF7 breast.

`Cn1cc(NC(=O)Nc2cc(C(=O)Nc3cc(C(=O)Nc4ccc(S(=O)(=O)O)c5cc(S(=O)(=O)O)ccc45)n(C)c3)n(C)c2)cc1C(=O)Nc1cc(C(=O)Nc2ccc(S(=O)(=O)O)c3cc(S(=O)(=O)O)ccc23)n(C)c1`: the concentration for total growth inhibition (TGI) with A549 NSCLC, with SNB-75 CNS, in the experiment on UO-31 renal and in the experiment with MCF7 breast was greater than 100 µM in each case.

As to `COC(=O)c1ccccc1/C=C1\Cc2ccc(C)c(C)c2C1=O`, the TGI in the experiment with A549 NSCLC, in the experiment with SNB-75 CNS, in the experiment on UO-31 renal and in the experiment with MCF7 breast was greater than 100 µM each time.

`CN(C)CCCN1CCC2(CCC(C(C)(C)C)CC2)CC1`: the TGI with A549 NSCLC is 12.1 µM; in the experiment on SNB-75 CNS, 4.11 µM; with UO-31 renal, 3.4 µM; with MCF7 breast it was 3.07 µM.

With `Fc1cc(-c2cc(-c3ccccc3)no2)c(Cl)cc1Cl`, the TGI in the experiment on A549 NSCLC was greater than 41.6 µM; in the experiment with SNB-75 CNS, greater than 54.4 µM; with UO-31 renal, greater than 59.3 µM; with MCF7 breast, greater than 100 µM.

As to `O=c1c(/C=C/c2c(O)ccc3ccccc23)nnc2sc(-c3cccc(Br)c3)nn12`, the results for the TGI in the experiment with A549 NSCLC, in the experiment on UO-31 renal and in the experiment with MCF7 breast were greater than 100 µM, 69.6 µM and 84.4 µM, respectively.

With `CC#CCOC(=O)c1ccccc1OC(C)=O`, the TGI with SNB-75 CNS, with UO-31 renal and with MCF7 breast was greater than 100 µM in each case.

By GI50 is commonly meant the concentration giving 50% growth inhibition. Turning to `O=c1cc(-c2cccc3ccccc23)[nH]c2ncccc12`, the GI50 in the experiment with A549 NSCLC was 0.0216 µM; in the experiment on UO-31 renal, 0.0741 µM. In addition, the TGI was greater than 100 µM in the experiment with A549 NSCLC, greater than 100 µM with UO-31 renal and 4.25 µM in the experiment with MCF7 breast.

`Cc1c(N=Nc2ccc(Cl)cc2)c(-c2ccccc2)n(C2OC(CO)C(O)C(O)C2O)c(=S)c1C#N` (configuration not stated): the TGI is 35.3 µM in the experiment with A549 NSCLC, 32.7 µM in the experiment on SNB-75 CNS, 34.2 µM with UO-31 renal and 34.5 µM with MCF7 breast.

In the case of `CN=C(N=Nc1c(O)[nH]c2ccccc12)SCC(=O)c1ccc(Br)cc1`, the TGI in the experiment on A549 NSCLC came out at 20 µM; with SNB-75 CNS it was 27.5 µM; in the experiment with UO-31 renal, 3.79 µM; in the experiment with MCF7 breast, 20.4 µM.

Take `COC(=O)C(Cc1c[nH]c2ccccc12)NP(=O)(O)OCC1OC(n2cc(I)c(=O)[nH]c2=O)CC1O` (configuration not stated): the TGI in the experiment with A549 NSCLC, in the experiment on SNB-75 CNS, with UO-31 renal and in the experiment on MCF7 breast was greater than 100 µM throughout.

For the compound `CC(=O)c1c(C)n([O-])c2cc(Cl)c(Cl)cc2[n+]1=O`, the results for the TGI with A549 NSCLC, in the experiment with UO-31 renal and with MCF7 breast were 56.2 µM, 32.9 µM and greater than 100 µM, respectively.

Consider `COc1ccc(/C=C2\N=C(SC)N(CN3CCOCC3)C2=O)cc1`, for which the TGI with A549 NSCLC, in the experiment with SNB-75 CNS, with UO-31 renal and with MCF7 breast was greater than 100 µM in each case.

On to `CC1CCC(C(C)C)C(OC(=O)NCn2cc(-c3ccccc3)nn2)C1` (configuration not stated), for which the TGI in the experiment on A549 NSCLC is greater than 100 µM; with SNB-75 CNS it was 86 µM; in the experiment with MCF7 breast it was greater than 100 µM.

Turning to `COc1cc(C2c3cc4c(cc3OC3(OC)COC(=O)C23)OCO4)cc(OC)c1OC(C)=O` (configuration not stated), the TGI in the experiment on A549 NSCLC was greater than 100 µM; with SNB-75 CNS, greater than 62.9 µM; with UO-31 renal it was greater than 100 µM; in the experiment on MCF7 breast, greater than 36.4 µM.

On to `CC1CCC(=O)C(C(=O)CC2CC(=O)N(C)C(=O)C2)C1` (configuration not stated), for which the TGI in the experiment with A549 NSCLC, in the experiment on SNB-75 CNS, in the experiment on UO-31 renal and with MCF7 breast was greater than 100 µM in each case.

As to `COC(=O)/C=C(\C)CC(O)/C=C(\C)CCC=C(C)C` (configuration not stated), the TGI with A549 NSCLC was greater than 100 µM; with SNB-75 CNS, 57.1 µM; with UO-31 renal, greater than 100 µM; in the experiment with MCF7 breast, greater than 100 µM.

`N#Cc1c(N)nc2n[nH]c(N)c2c1-c1ccc(Cl)cc1`: the TGI in the experiment with A549 NSCLC was greater than 72.9 µM; with UO-31 renal it was 19.9 µM; in the experiment on MCF7 breast, 19 µM.

Regarding `O=C(/C=C/c1cc2ccccc2o1)N1CCN(c2ccccn2)CC1`, the total growth inhibition concentration (TGI) with A549 NSCLC, in the experiment with UO-31 renal and with MCF7 breast was greater than 100 µM each time.

For `N#CCCN(C(=O)Nc1ccccc1)[C@H]1CCCC[C@@H]1N(C(=O)Nc1ccccc1)c1ccccc1`, the TGI in the experiment with A549 NSCLC, in the experiment with SNB-75 CNS, with UO-31 renal and in the experiment on MCF7 breast was greater than 100 µM each time.

`O=C1CCCC1CN1CCCC1` (configuration not stated): the TGI is greater than 100 µM in the experiment with A549 NSCLC, 31 µM in the experiment with SNB-75 CNS, 17.6 µM with UO-31 renal and 8.53 µM with MCF7 breast.

Turning to `CN(C)CCCC12CCCCC1=Nc1ccccc12` (configuration not stated), the TGI in the experiment on A549 NSCLC, in the experiment with SNB-75 CNS, in the experiment with UO-31 renal and with MCF7 breast was greater than 100 µM each time.

Turning to `Cc1ccc(-n2c(N)c(C#N)c3[nH]nc(N)c3c2=O)cc1`, the TGI with SNB-75 CNS, in the experiment with UO-31 renal and in the experiment on MCF7 breast was greater than 100 µM throughout.

For `COc1ccc(C(OCC2OC(n3cc(C)c(=O)[nH]c3=O)CC2n2cc(Cn3cc(Cl)c(=O)[nH]c3=O)nn2)(c2ccccc2)c2ccccc2)cc1` (configuration not stated), the TGI in the experiment with A549 NSCLC, with SNB-75 CNS, in the experiment on UO-31 renal and in the experiment on MCF7 breast was greater than 100 µM in each case.

For `NNC(=O)c1n[nH]nc1C(=O)NN`, the TGI was greater than 100 µM in the experiment on A549 NSCLC, 41.8 µM in the experiment with UO-31 renal and greater than 100 µM with MCF7 breast.

For `O=C(O)[C@@H]1CCS(=O)(=O)N1`, the TGI in the experiment with A549 NSCLC and in the experiment with MCF7 breast was greater than 100 µM each time.

For the compound `CC12CC(c3ccccc3O1)C(C(=O)Nc1ccc(Cl)cc1Cl)C(=O)N2` (configuration not stated), the TGI in the experiment on A549 NSCLC is 56.8 µM; with UO-31 renal, 37.7 µM; in the experiment with MCF7 breast, greater than 100 µM.

As to `Nc1nc(N)c2c3c(cnc2n1)CC(c1ccccc1)CC3` (configuration not stated), the TGI in the experiment on A549 NSCLC was greater than 100 µM; in the experiment with SNB-75 CNS, 35.9 µM; in the experiment on MCF7 breast, 30.4 µM.

On to `O=c1[nH]nc(Cc2ccccc2)n1/N=C/c1ccccc1O`, for which the TGI with A549 NSCLC, in the experiment on UO-31 renal and in the experiment with MCF7 breast was greater than 100 µM each time.

On to `N#Cc1c(N)n(-c2cccc(C(=O)O)c2)c(=O)c2cc([N+](=O)[O-])ccc12`, for which the TGI in the experiment on A549 NSCLC, with SNB-75 CNS and in the experiment on UO-31 renal was greater than 100 µM throughout.
